Results published in patent US20210177795A1 (priority 2017, published 2021).
“Also recorded” adds a separate entry of the source.

Assays:
[1] = mouse, in vivo
[2] = system: Udorn influenza virus (A/Udorn/307/72 (H3N2)); set-up: species or system C57BL/6 mice; conditions: mouse, in vivo
[3] = system: cytokines/chemokines; set-up: species or system C57BL/6 mice; conditions: mouse, in vivo
[4] = system: IL-6; set-up: species or system C57BL/6 mice; conditions: mouse, in vivo
[5] = system: MCP-1; set-up: species or system C57BL/6 mice; conditions: mouse, in vivo
[6] = system: KC; set-up: species or system C57BL/6 mice; conditions: mouse, in vivo
[7] = system: RANTES; set-up: species or system C57BL/6 mice; conditions: mouse, in vivo
[8] = system: IL-10; set-up: species or system C57BL/6 mice; conditions: mouse, in vivo

## CCCCCCCCCCCCCCCC(=O)OCC(CSC[C@H](N)C(=O)N[C@@H](CO)C(=O)N[C@@H](CO)C(=O)NCCOCCOCCOCCOCCOCCOCCOCCOCCOCCOCCOCCOCCC(=O)NCC(N)=O)OC(=O)CCCCCCCCCCCCCCC (stereo partly drawn) [INNA-003, PEG-S—S-Pam2Cys]
[1]
  greatest weight loss: 1.89%±1.15%

## CCC(=O)OCC(CSCC(N)C(=O)NC(CO)C(=O)NCCOCC(=O)NCC(N)=O)OC(=O)CC (stereo not drawn) [INNA-006, PEG-S-Pam2Cys]
[2]
  progression of influenza virus to the lungs: significantly inhibited; also recorded: partial inhibition
[3]
  cytokine/chemokine levels in nasal turbinates, lungs and sera, 3 repeat doses vs single dose: marked decrease
  cytokine/chemokine profiles in lungs, trachea and sera, single vs triple dose regimes: no discernible differences
  proinflammatory cytokines and chemokines including IL-6, KC & MCP-1 in nasal turbinates vs saline: increases were detected in a dose-dependent manner
[4]
  IL-6 in nasal turbinates, fold lower with 3 doses vs single dose: approximately 25 fold
  fold increase in IL-6 levels in nasal turbinates vs saline: 98 fold
[5]
  MCP-1 level in nasal turbinates: ~66 pg/mL
  fold increase of MCP-1 in nasal turbinates vs saline: 7 fold
[6]
  KC in the lungs compared to the saline control: no significance
  KC level in lungs: ~14 pg/mL
  KC level in nasal turbinates: ~83 pg/mL
  KC levels in the lung: ~16.3 pg/mL
  fold increase of KC in nasal turbinates vs saline: 2 fold
  fold increase of KC secretion in lungs compared to INNA-003: 2 fold
  fold increase of KC secretion in lungs compared to saline control: 3 fold
[7]
  RANTES level in nasal turbinates: ~141 pg/mL
  RANTES secretion in nasal turbinates compared to INNA-003: increased RANTES secretion
  fold increase of RANTES in nasal turbinates vs saline: 1.9 fold
[8]
  IL-10 level in nasal turbinates: ~17 pg/mL
  fold increase of IL-10 in nasal turbinates vs saline: 2 fold
[1]
  greatest weight loss: 1.87%±1.33%

## PEG-[Arg]4-Ser-Ser-Pam2Cys [INNA-002]
[2]
  antiviral effect across doses: dose-dependent antiviral-effect
  progression of influenza virus to the lungs: inhibited; also recorded: partial inhibition
